Source: patent publication US11149046B2, “Antibacterial sideromycins” (Hsiri Therapeutics, Inc., priority 2014, dated 2021)
≈ marks a conversion by molar mass, not a printed value. Entries after “also recorded” stand apart in the source; their conditions may differ. Like-named read-outs stand apart in the source and are kept apart here. Values belong to the compound of their own block, whether it stands above or below them.

Assays:
[1] = test system: Acinetobacter baumannii ATCC 17961; assay: Agar diffusion (Kirby-Bauer) assay, with and without hydrogel; assay type: cell-based; conditions: for zones of inhibition (in words): Acinetobacter, FIG. 8, 9, 10; for AD = agar diffusion inhibition zones: Table 5, head prints A. baumannii only
Excerpt: (§1) Table 3 that was included in the first Example 4 section provides antibacterial data for the first synthetic sideromycins we prepared and studied. The second Example 4 section elaborated and expanded on that data with inclusion of representative antibacterial data in the text and associated pictures of Petri dish assays. MIC (minimum inhibition concentration) is given in μM and AD (agar diffusion zones of inhibition are given in mm from Kirby-Bauer Petri dish growth inhibition studies).
We investigated whether the sideromycin absorbed in the gel be able to diffuse out of the gel and into the agar to effect antibacterial growth. As a control, the sideromycin alone, without gel, was added in a separate 9 mm well, as usual.
The second question was whether the sideromycin continue to be released and be able to effect bacterial growth inhibition over extended periods. Thus, additional identical agar plates were prepared and stored at 4° C. for 24, 48 and 72 hours to allow diffusion of the sideromycin (control and gel forms) into the agar before allowing the bacteria to grow in an incubator. Then after each time period, the Petri dishes were incubated at 37° C. for 20 hours to promote bacteria growth in the agar. […] The study has been extended to as long as 168 hours (one week) with retention of antibiotic effectiveness.

[2] = test system: Pseudomonas aeruginosa KW799/61; assay type: cell-based; conditions: for AD = agar diffusion inhibition zones: Table 5
Excerpt: (§2) MIC (minimum inhibition concentration) is given in μM and AD (agar diffusion zones of inhibition are given in mm from Kirby-Bauer Petri dish growth inhibition studies).

[3] = test system: E. coli DC0; assay: Agar diffusion (Kirby-Bauer) assay; assay type: cell-based; conditions: Table 5
Excerpt: as §1

[4] = test system: E. coli DC2; assay: Agar diffusion (Kirby-Bauer) assay; assay type: cell-based; conditions: Table 5
Excerpt: as §1

[5] = test system: Pseudomonas aeruginosa KW799/wt; assay: Agar diffusion (Kirby-Bauer) assay; assay type: cell-based; conditions: for zones of inhibition (in words): wild type Pseudomonas, FIG. 8, 9, 12
Excerpt: as §1

[6] = test system: Pa6; assay: MIC determination; assay type: cell-based, Pseudomonas aeruginosa; conditions: Pseudomonas aeruginosa
Excerpt: as §2

[7] = test system: Pa4; assay: MIC determination; assay type: cell-based, Pseudomonas aeruginosa; conditions: Pseudomonas aeruginosa; Table 5
Excerpt: as §1

[8] = test system: P. aeruginosa KW799/wt; assay: MIC determination; assay type: cell-based, Pseudomonas aeruginosa; conditions: Pseudomonas aeruginosa, KW799/WT
Excerpt: as §1

[9] = test system: Pseudomonas aeruginosa 01 (Pa01); assay: MIC determination; assay type: cell-based; conditions: Pseudomonas aeruginosa, read-out: MIC
Excerpt: as §1

[10] = test system: A. baumannii ATCC 17961; assay: MIC determination; assay type: cell-based, Acinetobacter baumannii; conditions: Acinetobacter baumannii
Excerpt: as §1

[11] = test system: Pa-Da-1304 CF patient isolate; assay: MIC determination; assay type: cell-based, Pseudomonas aeruginosa; conditions: for MIC: Pseudomonas aeruginosa
Excerpt: as §2
We obtained a clinical isolate of Pseudomonas from a cystic fibrosis patient.

[12] = test system: Acinetobacter; assay: Murine Survival Experiment with Acinetobacter; assay type: in vivo; conditions: 50 mg/kg IV at +30 min and +4 hr
Protocol: In vivo data for murine survival with Acinetobacter is shown in Table 9 below and graphically in FIG. 14. In the experiments, 10^8 Acinetobacter was administered IP at time 0 on Day 1, and antibiotic was administered twice IV at +30 min and +4 hr

[13] = Animal tolerability study (NOAEL) in healthy mice; assay type: in vivo; conditions: 24 hour study
Protocol: With the easily formulated sideromycin in hand, we profiled sideromycin safety in healthy mice. Thus, sideromycin YML-I-115 was tested in healthy mice to determine its No-observed-adverse-effect level (NOAEL). We dosed the mice with YML-I-115 (the sodium salt) at 1 mg/kg, 20 mg/kg, 50 mg/kg, and 100 mg/kg through IV injection of the compound. […] Higher dosage animal experiments have been scheduled to determine the upper limit of the NOAEL value.

[14] = test system: P. aeruginosa KW799/61 (permeability mutant); assay: microbe, parasite or virus in culture; assay type: cell-based, Pseudomonas aeruginosa; conditions: Pseudomonas aeruginosa
Excerpt: as §2

[15] = ATCC17961, Table 5, head prints A. baumannii only, read-out: MIC
[16] = ATCC17961, Table 7, read-out: MIC

Compound: CC(=O)Oc1cccc(C(=O)NCCCCN(CC(=O)N[C@H](C(=O)N[C@@H]2C(=O)N3C(C(=O)O)=C(Cl)CC[C@H]23)c2ccccc2)C(=O)c2cccc(OC(C)=O)c2OC(C)=O)c1OC(C)=O [YML-1-45cr]
zones of inhibition (in words) [1]: zones comparable to or even larger than our first sideromycin, 21; also recorded: impressive zones of inhibition | AD = agar diffusion inhibition zones [1]: (AD = 18) mm | AD = agar diffusion inhibition zones [2]: (AD = 23) mm | zones of inhibition (in words) ([2]; outer membrane permeable mutant, FIG. 9 center panel): significant activity | AD = agar diffusion inhibition zones [3]: (AD = 31) mm | AD = agar diffusion inhibition zones [4]: (AD = 38) mm | AD = agar diffusion inhibition zones ([5]; Table 5): (AD = 18) mm | zones of inhibition (in words) [5]: sizable zone of inhibition; also recorded: impressive zones of inhibition; also recorded: significant activity

MIC ([6]; Table 5, read-out: MIC): 6 µM (≈ 4.5 µg/mL) | MIC [7]: 12 µM (≈ 9 µg/mL) | MIC ([8]; Table 5, read-out: MIC): 0.025 µM (≈ 0.0188 µg/mL) | MIC ([9]; Table 5): 1.5 µM (≈ 1.13 µg/mL) | MIC [10, 15]: 0.03 to 0.06 µM (≈ 0.0225 to 0.045 µg/mL) | MIC [10, 16]: 0.1 µM (≈ 0.075 µg/mL) | MIC ([11]; Table 5): > 100 µM
Compound: O=C(CN(CCCCNC(=O)c1cccc(O)c1O)C(=O)c1cccc(O)c1O)N[C@H](C(=O)N[C@@H]1C(=O)N2C(C(=O)O)=C(Cl)CC[C@H]12)c1ccccc1 [YML-I-60]
growth inhibition with hydrogel / multi-day diffusion (in words) ([1]; plates stored at 4° C. for 24, 48 and 72 hours, then 37° C., or gel streaked on inoculated dish): zones of inhibition increased dramatically after each day

Compound: O=C(CN(CCCCNC(=O)c1cccc(O)c1O)C(=O)c1cccc(O)c1O)NC(C(=O)NC1C(=O)N2C(C(=O)[O-])=C(Cl)CCC12)c1ccccc1.[Na+] (stereo not shown) [YML-I-115]
murine survival (surviving mice) ([12]; D 1, 10^8 Acinetobacter IP): 6 | murine survival (surviving mice) ([12]; D 2): 6 | murine survival (surviving mice) ([12]; D 3): 6 | murine survival (surviving mice) ([12]; D 4): 6 | murine survival (surviving mice) ([12]; D 5): 6 | murine survival (surviving mice) ([12]; D 6): 6 | murine survival (surviving mice) ([12]; D 7): 6 | survival and behavior (in words) ([13]; 1, 20, 50 and 100 mg/kg IV): All the mice survived and none of the mice experienced abnormal behavior | No-observed-adverse-effect level (NOAEL) ([13]; healthy mice, IV injection): 100 mg/kg

MIC ([6]; Table 5, read-out: MIC): > 200 µM | MIC [7]: > 200 µM | MIC ([8]; Table 5, read-out: MIC): 200 µM (≈ 69.9 µg/mL) | MIC ([8]; iron deficient media, read-out: MIC in Fe(−)MHII Media): 250 µM (≈ 87.4 µg/mL) | MIC ([9]; Table 7): > 200 µM | MIC ([9]; Table 5): > 200 µM | MIC [10, 15]: > 200 µM | MIC [10, 16]: > 200 µM | MIC ([10]; ATCC17961, iron deficient media, read-out: MIC in Fe(−)MHII Media): 250 µM (≈ 87.4 µg/mL) | MIC ([10]; ATCC17961, text, read-out: MIC): > 250 µM | MIC ([11]; Table 5): > 200 µM
Compound: CC1(C)S[C@@H]2[C@H](NC(=O)[C@H](N)c3ccccc3)C(=O)N2[C@H]1C(=O)O [ampicillin, reference compound]
zones of inhibition (in words) [1]: inactive | susceptibility of the clinical isolate (in words) ([11]; preliminary tests): resistant | zones of inhibition (in words) [5]: inactive

Compound: CC(=O)Oc1cccc(C(=O)NCCCCN(CC(=O)N[C@@H](C(=O)N[C@@H]2C(=O)N3C2SC(C)(C)[C@@H]3C(=O)O)c2ccccc2)C(=O)c2cccc(O)c2O)c1OC(C)=O (stereo partly shown) [YML-I-62]
MIC [14]: 0.0078 µM (≈ 0.0065 µg/mL) | MIC ([6]; beta-lactamase producer strain, read-out: MIC): > 100 µM | MIC ([6]; in the presence of potassium clavulanate, read-out: MIC with added beta-lactamase inhibitor): 0.0625 µM | MIC [7]: 0.0156 µM (≈ 0.013 µg/mL) | MIC ([8]; Table 5, read-out: MIC): 0.0156 µM (≈ 0.013 µg/mL) | MIC ([9]; Table 5): 0.0156 µM (≈ 0.013 µg/mL) | MIC [10, 15]: 0.25 µM (≈ 0.208 µg/mL) | MIC [10, 16]: 0.25 µM (≈ 0.208 µg/mL) | MIC ([11]; Table 5): 0.78 µM (≈ 0.65 µg/mL) | MIC ([11]; clinical isolate from a cystic fibrosis patient): 0.4 to 0.75 µM (≈ 0.334 to 0.625 µg/mL) | zones of inhibition (in words) [5]: potently active

Compound: CC(C)(C)OC(=O)NCCCCCN(O)C(=O)CCC(=O)N[C@@H](C(=O)N[C@@H]1C(=O)N2C1SC(C)(C)[C@@H]2C(=O)O)c1ccccc1 (stereo partly shown) [YML-I-27]
AD = agar diffusion inhibition zones [1]: (AD = 17) mm | AD = agar diffusion inhibition zones [2]: (AD = 24) (AD = 24) mm | AD = agar diffusion inhibition zones [3]: (AD = 0) mm | AD = agar diffusion inhibition zones [4]: (AD = 26) mm

MIC ([6]; Table 6, read-out: MIC): > 50 µM
Compound: CC(=O)Oc1cccc(C(=O)NCCCCN(CCCNC(=O)c2cccc(OC(C)=O)c2OC(C)=O)C(=O)CCC(=O)N[C@@H](CCCN(O)C(C)=O)C(=O)N[C@@H](C(=O)N[C@@H]2C(=O)N3C2SC(C)(C)[C@@H]3C(=O)O)c2ccccc2)c1OC(C)=O (stereo partly shown) [MG-1-186]
